How the values were obtained:
Assay type in all cases: in vivo
[1] = system: Myzus persicae; test: Myzus persicae spray test (MYZUPE), Chinese cabbage leaf discs; settings: foliar, 120 h; for pest or weed control at 20 g/ha: application rate 20 g/ha; for pest or weed control at 20 g/ha / pest or weed control at 100 g/ha: after 5 days, read-out: efficacy; for pest or weed control at 100 g/ha: application rate 100 g/ha
Method: Myzus persicae—Spray Test [table] To produce a suitable active ingredient formulation, 1 part by weight of active ingredient is dissolved with the specified parts by weight of solvent and made up to the desired concentration with water containing an emulsifier concentration of 1000 ppm. To produce further test concentrations, the formulation is diluted with emulsifier-containing water. Discs of Chinese cabbage leaves (Brassica pekinensis) infested by all stages of the green peach aphid (Myzus persicae) are sprayed with an active ingredient formulation of the desired concentration. After 5 days, the efficacy in % is determined. 100% means that all the aphids have been killed; 0% means that no aphids have been killed. Myzus persicae—Spray Test (MYZUPE) [table] To produce a suitable active ingredient formulation, 1 part by weight of active ingredient is dissolved with the specified parts by weight of solvent and made up to the desired concentration with water containing an emulsifier concentration of 1000 ppm. To produce further test concentrations, the formulation is diluted with emulsifier-containing water. Discs of Chinese cabbage leaves (Brassica pekinensis) infested by all stages of the green peach aphid (Myzus persicae) are sprayed with an active ingredient formulation of the desired concentration. After the desired period of time, the efficacy in % is determined. 100% means that all the aphids have been killed; 0% means that no aphids have been killed.

[2] = system: Myzus persicae; test: Myzus persicae oral test; settings: 120 h, application rate 4 ppm, after 5 days, read-out: efficacy
Method: Myzus persicae—Oral Test Solvent: 100 parts by weight of acetone To produce a suitable active ingredient formulation, 1 part by weight of active ingredient is dissolved with the stated parts by weight of solvent and made up to the desired concentration with water. 50 μl of the active ingredient formulation are transferred into microtitre plates and made up to a final volume of 200 μl with 150 μl of IPL41 insect medium (33%+15% sugar). Subsequently, the plates are sealed with parafilm, which a mixed population of green peach aphids (Myzus persicae) within a second microtitre plate is able to puncture and imbibe the solution. After 5 days, the efficacy in % is determined. 100% means that all the aphids have been killed; 0% means that no aphids have been killed.

[3] = system: Phaedon cochleariae; test: Phaedon cochleariae spray test, Chinese cabbage leaf discs; settings: foliar, 168 h, application rate 100 g/ha, after 7 days, larvae, read-out: efficacy
Method: Phaedon cochleariae—Spray Test
To produce a suitable active ingredient formulation, 1 part by weight of active ingredient is dissolved with the specified parts by weight of solvent and made up to the desired concentration with water containing an emulsifier concentration of 1000 ppm. To produce further test concentrations, the formulation is diluted with emulsifier-containing water.
After 7 days, the efficacy in % is determined. 100% means that all the beetle larvae have been killed; 0% means that no beetle larvae have been killed.

[4] = system: Spodoptera frugiperda; test: Spodoptera frugiperda spray test, maize leaf discs; settings: for Emax at 100 g/ha: Spodoptera frugiperda, foliar, 168 h, SPODFR, 100 g of ai/ha, 7 dat, read-out: % efficacy; for efficacy: application rate 100 g/ha, after 7 days, caterpillars
Method: Spodoptera frugiperda—Spray Test [table] To produce a suitable active ingredient formulation, 1 part by weight of active ingredient is dissolved with the specified parts by weight of solvent and made up to the desired concentration with water containing an emulsifier concentration of 1000 ppm. To produce further test concentrations, the formulation is diluted with emulsifier-containing water. Leaf discs of maize (Zea mays) are sprayed with an active ingredient formulation of the desired concentration and, after drying, populated with caterpillars of the armyworm (Spodoptera frugiperda). After 7 days, the efficacy in % is determined. 100% means that all the caterpillars have been killed; 0% means that no caterpillar has been killed.

[5] = system: Lucilia cuprina; test: Lucilia cuprina test; settings: after 2 days, L1 larvae
Method: Lucilia cuprina Test Solvent: dimethyl sulfoxide To produce a suitable active ingredient formulation, 10 mg of active ingredient are mixed with 0.5 ml of dimethyl sulfoxide, and the concentrate is diluted with water to the desired concentration. About 20 L1 larvae of the Australian sheep blowfly (Lucilia cuprina) are transferred into a test vessel containing minced horsemeat and the active ingredient formulation of the desired concentration. After 2 days, the kill in % is determined. 100% means that all the larvae have been killed; 0% means that no larvae have been killed.

[6] = system: Ctenocephalides felis; test: Ctenocephalides felis oral test; settings: application rate 100 ppm, after 2 days
Method: Ctenocephalides felis—Oral Test Solvent: dimethyl sulfoxide To produce a suitable active ingredient formulation, 10 mg of active ingredient are mixed with 0.5 ml of dimethyl sulfoxide. Dilution with citrated cattle blood gives the desired concentration. About 20 unfed adult cat fleas (Ctenocephalides felis) are placed into a chamber which is closed at the top and bottom with gauze. A metal cylinder whose bottom end is closed with parafilm is placed onto the chamber. The cylinder contains the blood/active ingredient formulation, which can be imbibed by the fleas through the parafilm membrane. After 2 days, the kill in % is determined. 100% means that all of the fleas have been killed; 0% means that none of the fleas have been killed.

[7] = system: Myzus persicae; test: Myzus persicae spray test, bell pepper plants; settings: application rate 20 ppm, after 6 days
Method: Myzus persicae—Spray Test Solvent: 14 parts by weight of dimethylformamide Emulsifier: alkylaryl polyglycol ether To produce a suitable active ingredient formulation, 1 part by weight of active ingredient is dissolved with the specified parts by weight of solvent and made up to the desired concentration with water containing an emulsifier concentration of 1000 ppm. To produce further test concentrations, the formulation is diluted with emulsifier-containing water. If the addition of ammonium salts or/and penetrants is required, these are each added in a concentration of 1000 ppm to the formulation solution. Bell pepper plants (Capsicum annuum) severely infested with the green peach aphid (Myzus persicae) are treated by spraying with the active ingredient formulation in the desired concentration. After 6 days, the kill in % is determined. 100% means that all of the aphids have been killed; 0% means that none of the aphids have been killed.

[8] = system: Nezara viridula; test: Nezara viridula spray test; settings: 96 h, NEZAVI, 500 g of ai/ha, 4 dat, read-out: % efficacy
Method: Nezara viridula—Spray Test [table] To produce a suitable active ingredient formulation, 1 part by weight of active ingredient is dissolved with the specified parts by weight of solvent and made up to the desired concentration with water containing an emulsifier concentration of 1000 ppm. To produce further test concentrations, the formulation is diluted with emulsifier-containing water. If the addition of ammonium salts or/and penetrants is required, these are each added in a concentration of 1000 ppm to the formulation solution. Barley plants (Hordeum vulgare) infected with larvae of the Southern green shield bug (Nezara viridula) are sprayed with an active ingredient formulation of the desired concentration. After the desired period of time, the efficacy in % is determined. 100% means that all of the shield bugs have been killed; 0% means that none of the shield bugs have been killed.

[9] = system: Spodoptera frugiperda; test: Spodoptera frugiperda spray test (SPODFR S), cotton leaves; settings: 168 h, 7 dat, read-out: % efficacy
Method: Spodoptera frugiperda—Spray Test (SPODFR S) Solvent: 14 parts by weight of dimethylformamide Emulsifier: alkylaryl polyglycol ether To produce a suitable active ingredient formulation, 1 part by weight of active ingredient is dissolved with the specified parts by weight of solvent and made up to the desired concentration with water containing an emulsifier concentration of 1000 ppm. To produce further test concentrations, the formulation is diluted with emulsifier-containing water. If the addition of ammonium salts or/and penetrants is required, these are each added in a concentration of 1000 ppm to the formulation solution. Cotton leaves (Gossypium hirsutum) are sprayed with an active ingredient formulation of the desired concentration and populated with caterpillars of the armyworm (Spodoptera frugiperda). After the desired time, the kill in % is determined. 100% means that all caterpillars have been killed; 0% means that none of the caterpillars have been killed.

For CCS(=O)(=O)c1ccc(NC(=O)NC)nc1-c1nc2cc(C(F)(F)F)nc(C)c2n1C [Example I-002], the pest or weed control at 20 g/ha [1] was 90% and the pest or weed control at 4 ppm [2] was 100%.

Molecule CCS(=O)(=O)c1ccc(-n2cc(Cl)cn2)nc1-c1nc2cc(C(F)(F)F)nc(C)c2n1C [Example I-004] has a pest or weed control at 100 g/ha [3] of 100% and a pest or weed control at 4 ppm [2] of 100%.

Molecule CCS(=O)(=O)c1ccc(-n2cncn2)nc1-c1nc2cc(C(F)(F)F)nc(Cl)c2n1C [Example I-005] has a pest or weed control at 20 g/ha [1] of 100%, a pest or weed control at 100 g/ha [1] of 100% and an Emax at 100 g/ha [4] of 100%. It also gave an efficacy [4] of 100% and a pest or weed control at 4 ppm [2] of 100%.

For CCS(=O)(=O)c1ccc(NC(=O)NC)nc1-c1nc2cc(C(F)(F)F)nc(Cl)c2n1C [Example I-006], the pest or weed control at 20 g/ha [1] was 90%, the pest or weed control at 100 g/ha [1] was 90% and the pest or weed control at 4 ppm [2] was 100%.

CCS(=O)(=O)c1ccc(N)nc1-c1nc2cc(C(F)(F)F)nc(C#N)c2n1C [Example I-007] showed a pest or weed control at 20 g/ha [1] of 90%, a pest or weed control at 100 g/ha [3] of 100% and a pest or weed control at 4 ppm [2] of 100%.

In the case of CCS(=O)(=O)c1ccc(-n2cc(C#N)cn2)nc1-c1nc2cc(C(F)(F)F)nc(C)c2n1C [Example I-008], the “efficacy (kill)” value ([5]; application rate 100 ppm) was 100%, the pest or weed control at 100 g/ha [3] was 100% and the “efficacy (kill)” value [6] was 100%. It also gave a pest or weed control at 4 ppm [2] of 100%.

For CCS(=O)(=O)c1ccc(-n2cc(Cl)cn2)nc1-c1nc2cc(C(F)(F)F)nc(C#N)c2n1C [Example I-009, 2-[6-(4-chloro-1H-pyrazol-1-yl)-3-(ethylsulfonyl)pyridin-2-yl]-3-methyl-6-(trifluoromethyl)-3H-imidazo[4,5-c]pyridine-4-carbonitrile], the “efficacy (kill)” value ([5]; application rate 20 ppm) was 100%, the “efficacy (kill)” value ([5]; application rate 100 ppm) was 100% and the pest or weed control at 4 ppm [2] was 90%.

With CCS(=O)(=O)c1ccc(NC(=O)NC)nc1-c1nc2cc(C(F)(F)F)nc(C#N)c2n1C [Example I-010] the “efficacy (kill)” value [7] was 99%, the “efficacy (kill)” value [6] was 100% and the pest or weed control at 4 ppm [2] was 100%.

In the case of CCS(=O)(=O)c1ccc(-n2ncn(-c3ccc(Cl)cc3)c2=O)nc1-c1nc2cc(C(F)(F)F)nc(C#N)c2n1C [Example I-011, 2-{6-[4-(4-chlorophenyl)-5-oxo-4,5-dihydro-1H-1,2,4-triazol-1-yl]-3-(ethylsulfonyl)pyridin-2-yl}-3-methyl-6-(trifluoromethyl)-3H-imidazo[4,5-c]pyridine-4-carbonitrile], the “efficacy (kill)” value ([5]; application rate 20 ppm) was 100%, the “efficacy (kill)” value ([5]; application rate 100 ppm) was 100% and the pest or weed control at 100 g/ha [3] was 100%. The “efficacy (kill)” value [6] was 100%, the Emax at 500 g/ha [8] was 90% and the pest or weed control at 4 ppm [2] was 100%.

With CCS(=O)(=O)c1ccc(-n2cncn2)nc1-c1nc2cc(C(F)(F)F)nc(C#N)c2n1C [Example I-012] the “efficacy (kill)” value [7] was 100%, the pest or weed control at 100 g/ha [3] was 83% and the pest or weed control at 4 ppm [2] was 100%.

In the case of CCS(=O)(=O)c1ccc(C(=O)NC)nc1-c1nc2cc(C(F)(F)F)nc(C)c2n1C [Example I-014], the pest or weed control at 20 g/ha [1] was 90% and the pest or weed control at 4 ppm [2] was 100%.

CCS(=O)(=O)c1ccc(C(=O)N(C)C)nc1-c1nc2cc(C(F)(F)F)nc(C)c2n1C [Example I-015] was tested, and the pest or weed control at 20 g/ha [1] was 90%, the pest or weed control at 100 g/ha [1] was 90% and the pest or weed control at 4 ppm [2] was 100%.

With CCc1nc(C(F)(F)F)cc2nc(-c3nc(-n4ncn(-c5ccc(Cl)cc5)c4=O)ccc3S(=O)(=O)CC)n(C)c12 [Example I-016] the pest or weed control at 100 g/ha [3] was 100%, the Emax at 500 g/ha [8] was 50% and the Emax at 4 ppm [9] was 100%. The efficacy [4] was 100% and the pest or weed control at 4 ppm [2] was 100%.

Work on C=Cc1nc(C(F)(F)F)cc2nc(-c3nc(-n4ncn(-c5ccc(Cl)cc5)c4=O)ccc3S(=O)(=O)CC)n(C)c12 [Example I-017] yielded a pest or weed control at 20 g/ha [1] of 90%, an efficacy [4] of 100% and a pest or weed control at 4 ppm [2] of 100%.

CCS(=O)(=O)c1ccc(-n2cncn2)nc1-c1nc2cc(C(F)(F)F)ncc2n1C [Prior art WO 2016/124563 (Ex. 32), reference compound] gave an Emax at 100 g/ha [4] of 50%.

CCS(=O)(=O)c1ccc(-n2ccnn2)nc1-c1nc2cc(C(F)(F)F)ncc2n1C [Prior art according to WO 2016/124563, reference compound] showed an Emax at 4 g/ha ([1]; MYZUPE, 4 g of ai/ha, 5 dat, read-out: % efficacy) of 0%.
